Assay results published in patent US20260297129A1, “PEPTIDES AS SELECTIVE IL-23 RECEPTOR INHIBITORS” (SANOFI, priority 2023, published 2026).
In brackets after ≈: the same amount, converted by molar mass. Where two headings read alike, the source gives them in different places. Numbered stars: 1 amine (or outer) side, 2 acyl side, 3 side chain; on linkers, the order of the positions; unused ones are H or OH. Bridge positions count the residues as written; N and C are the ends. Square brackets hold non-standard residues; d marks the D form. Peptide text beside a SMILES is read from it. * marks the point of attachment. Lys(Me,(CH2)4NMe(CH2)4CO) = CN(CCCCC(=O)[*:3])CCCCN(C)CCCC[C@H](N[*:1])C(=O)[*:2]; X3 = Cc1cccc2c(C[C@H](N[*:1])C(=O)[*:2])cn(C)c12; Trp(7-Me) = Cc1cccc2c(C[C@H](N)C(=O)O)c[nH]c12; NH(2-(3-pyridyl)ethyl) = c1cncc(CCN*)c1; Sebacoyl = O=C(CCCCCCCCC(=O)[*:2])[*:1]; αMeLys(Me2) = CN(C)CCCC[C@](C)(N)C(=O)O; 2Nal = N[C@@H](Cc1ccc2ccccc2c1)C(=O)O; 3Pal = N[C@@H](Cc1cccnc1)C(=O)O; Lys(Me) = CNCCCC[C@H](N)C(=O)O; Aun = NCCCCCCCCCCC(=O)O; Thp = NC1(C(=O)O)CCOCC1; Me2NCH2CH2 = CN(C)CC*; Aib = CC(C)(N)C(=O)O; Sar = CNCC(=O)O

Tests used:
[1] = Solubility of peptide compounds in buffer formulations (Table 5); format: physicochemical; conditions: target 1 mg/ml
How it was run: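 Peptide solids, dried from DMSO stock, were taken up at 1 mg/mL in 50 mM HCl pH 1.2, or 50 mM phosphate pH 6.5 or pH 7.4. After 2 h gentle agitation and filtration (0.45 μm), solubility was determined by UHPLC-UV peak area against a DMSO standard of known concentration.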

[2] = test system: IL-23 induced STAT3 signaling (IL-23 receptor) in HEK-Blue IL-23 cells; experiment: Inhibition of IL-23 induced STAT3 signaling in HEK-Blue IL-23 cells, SEAP reporter (Table 9); format: cell-based; conditions: human IL23 0.25 ng/ml, overnight, read-out: Inhibition of IL-23 induced pSTAT3 (IC50 nM)
How it was run: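 HEK-Blue IL-23 reporter cells (10,000/well) pre-incubated 60 min at 37 °C with serially diluted peptides, then stimulated overnight with human IL-23 at 0.25 ng/ml final. SEAP in supernatant read by QUANTI-Blue, 45 min room temperature, OD 620–655 nm; dose-response curve fitting.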

[3] = Chemical stability (relative purity loss) of peptide compounds in buffer formulations (Table 6); format: physicochemical; conditions: 2° C. and 37° C.
How it was run: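 Compounds at 0.5 mg/mL in 50 mM HCl pH 1.2, 50 mM phosphate pH 6.5 or pH 7.4, each with acetonitrile (3:1), stored 24 hours at 2° C and 37° C. Purity measured by UHPLC-UV before and after. Stability expressed as relative purity loss.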

[4] = Protease stability in simulated gastric fluids (FaSSGF) (Table 7); format: in vitro ADME; conditions: fassgf with pepsin, 60 min, 37° C., read-out: Remaining percentage of peptide compound, FaSSGF 60 (min)
How it was run: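 Peptides at 1 μM final were incubated at 37 °C in simulated gastric fluid with pepsin (320 mg per 100 mL SGF concentrate). Samples were quenched with ethanol (0.1% HCOOH) at 0, 60, 120 and 240 min and analysed by LC-MS/MS. Percent remaining is the peak area relative to T0 (100%).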

[5] = Protease stability in simulated intestinal fluids (FaSSIF) (Table 7); format: in vitro ADME; conditions: fassif with pancreatin, 37° C.; for remaining at 1 h, 1 µM: 60 min, read-out: Remaining percentage of peptide compound, FaSSIF 60 (min); for remaining at 2 h, 1 µM: 120 min, read-out: Remaining percentage of peptide compound, FaSSIF 120 (min); for remaining at 4 h, 1 µM: 240 min, read-out: Remaining percentage of peptide compound, FaSSIF 240 (min)
How it was run: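 1 μM peptide incubated at 37° C in simulated fluid (pancreatin-SIF prepared from pancreatin in SIF concentrate). Samples quenched with acidified ethanol at 0, 60, 120 and 240 min and analysed by LC-MS/MS. Percentage remaining from peak area relative to T0 (100%).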

[6] = Buffer pH 1.1 (head; method: 50 mM HCl pH 1.2), 2 h agitation, read-out: Solubility, Buffer pH 1.1
[7] = aqueous buffer, 50 mM phosphate buffer pH 6.5, 2 h agitation, read-out: Solubility, Buffer pH 6.5
[8] = aqueous buffer, 50 mM phosphate buffer pH 7.4, 2 h agitation, read-out: Solubility, Buffer pH 7.4
[9] = 50 mM phosphate buffer pH 6.5 + acetonitrile (3:1), read-out: Chemical stability (relative purity loss), Buffer pH 6.5
[10] = 50 mM phosphate buffer pH 7.4 + acetonitrile (3:1), read-out: Chemical stability (relative purity loss), Buffer pH 7.4
[11] = 50 mm hcl + acetonitrile, Buffer pH 1.1 (head; method: 50 mM HCl pH 1.2 + acetonitrile 3:1), read-out: Chemical stability (relative purity loss), Buffer pH 1.1

SMILES | solubility at 2 h [1, 6] | solubility at 2 h [1, 7] | solubility at 2 h [1, 8] | IC50 [2] | degraded at 24 h [3, 9] | degraded at 24 h [3, 10] | degraded at 24 h [3, 11] | remaining at 1 h, 1 µM [4] | remaining at 1 h, 1 µM [5] | remaining at 2 h, 1 µM [5] | remaining at 4 h, 1 µM [5]
CN(C)CCOc1ccc(C[C@@H]2NC(=O)C3(CCOCC3)NC(=O)[C@H](CCC(N)=O)NC(=O)[C@H](Cc3c[nH]c4ccccc34)NC(=O)CCCCN(C)CCCCN(C)CCCC[C@@H](C(=O)N[C@@H](CO)C(=O)N[C@@H](Cc3cccnc3)C(=O)N(C)CC(N)=O)NC(=O)C(C)(C)NC(=O)[C@H](Cc3ccc4ccccc4c3)NC2=O)cc1 [compound 41] (WQ[Thp]Y(Me2NCH2CH2)[2Nal][Aib][Lys(Me,(CH2)4NMe(CH2)4CO)]S[3Pal][Sar]-NH2; lactam N-7) | ≥ 1020 µg/mL | ≥ 960 µg/mL | ≥ 1020 µg/mL | 4 nM | 0% | 0.4% | 5.8% | 95% | 93% | 93% | 81%
CC(=O)NCCCC[C@@H]1NC(=O)[C@H](Cc2c[nH]c3c(C)cccc23)NC(=O)CCCCCCCCCCNC(=O)CC[C@@H](C(=O)N[C@@H](CC(N)=O)C(=O)N[C@@H](Cc2cccnc2)C(=O)N(C)CC(N)=O)NC(=O)C(C)(C)NC(=O)[C@H](Cc2ccc3ccccc3c2)NC(=O)[C@H](Cc2ccc(OCCN(C)C)cc2)NC(=O)C2(CCOCC2)NC1=O [compound 16] ([Aun][Trp(7-Me)]K(Ac)[Thp]Y(Me2NCH2CH2)[2Nal][Aib]EN[3Pal][Sar]-NH2; lactam N-8) | ≥ 950 µg/mL | 760 µg/mL (≈ 458 µM) | 260 µg/mL (≈ 157 µM) | 0.37 nM | 0% | 0.6% | 3.8% | 88% | 84% | 85% | 84%
CC(=O)NCCCC[C@@H]1NC(=O)[C@H](Cc2c[nH]c3c(C)cccc23)NC(=O)CCCCCCCCCCNC(=O)CC[C@@H](C(=O)N[C@@H](CC(N)=O)C(=O)N[C@@H](Cc2cccnc2)C(=O)N(C)CC(N)=O)NC(=O)C2(CCOCC2)NC(=O)[C@H](Cc2ccc3ccccc3c2)NC(=O)[C@H](Cc2ccc(OCCN(C)C)cc2)NC(=O)C2(CCOCC2)NC1=O [compound 50] ([Aun][Trp(7-Me)]K(Ac)[Thp]Y(Me2NCH2CH2)[2Nal][Thp]EN[3Pal][Sar]-NH2; lactam N-8) | ≥ 1180 µg/mL | 340 µg/mL (≈ 200 µM) | 130 µg/mL (≈ 76.4 µM) | 0.19 nM | 0% | 0.1% | 3.4% | 84% | 91% | 92% | 91%
Cc1cccc2c(C[C@@H]3NC(=O)CCCCN(C)CCCCN(C)CCCC[C@@H](C(=O)NCC(=O)NCCc4cccnc4)NC(=O)C(C)(C)NC(=O)[C@H](Cc4ccc5ccccc5c4)NC(=O)[C@H](Cc4ccc(OCCN(C)C)cc4)NC(=O)C4(CCOCC4)NC(=O)[C@H](CC(C)C)NC3=O)cn(C)c12 [compound 49] ([X3]L[Thp]Y(Me2NCH2CH2)[2Nal][Aib][Lys(Me,(CH2)4NMe(CH2)4CO)]G-{NH(2-(3-pyridyl)ethyl)}; lactam N-7) | ≥ 900 µg/mL | 250 µg/mL (≈ 171 µM) | 40 µg/mL (≈ 27.4 µM) | 35.4 nM | 0% | 0% | 0% | 99% | 100% | 100% | 101%
Cc1cccc2c(C[C@@H]3NC(=O)CCCCCCCCCCNC(=O)CC[C@@H](C(=O)N[C@@H](CC(N)=O)C(=O)N[C@@H](Cc4cccnc4)C(=O)N(C)CC(N)=O)NC(=O)[C@](C)(CCCCN(C)C)NC(=O)[C@H](Cc4ccc5ccccc5c4)NC(=O)[C@H](Cc4ccc(OCCN(C)C)cc4)NC(=O)C4(CCOCC4)NC(=O)[C@H](CCC(N)=O)NC3=O)c[nH]c12 [compound 20] ([Aun][Trp(7-Me)]Q[Thp]Y(Me2NCH2CH2)[2Nal][αMeLys(Me2)]EN[3Pal][Sar]-NH2; lactam N-8) | ≥ 850 µg/mL | < 10 µg/mL | < 10 µg/mL | 0.23 nM | 0% | 0.1% | 4.9% | 91% | 96% | 96% | 97%
CC(=O)NCCCC[C@@H]1NC(=O)[C@H](Cc2c[nH]c3c(C)cccc23)NC(=O)CCCCN(C)CCCCN(C)CCCC[C@@H](C(=O)N[C@@H](CC(N)=O)C(=O)N[C@@H](Cc2cccnc2)C(=O)N(C)CC(N)=O)NC(=O)C(C)(C)NC(=O)[C@H](Cc2ccc3ccccc3c2)NC(=O)[C@H](Cc2ccc(OCCN(C)C)cc2)NC(=O)C2(CCOCC2)NC1=O [compound 32] ([Trp(7-Me)]K(Ac)[Thp]Y(Me2NCH2CH2)[2Nal][Aib][Lys(Me,(CH2)4NMe(CH2)4CO)]N[3Pal][Sar]-NH2; lactam N-7) | ≥ 950 µg/mL | ≥ 1080 µg/mL | ≥ 1120 µg/mL | 0.53 nM | 0% | 0.5% | 3.6% | 97% | 96% | 93% | 84%
Cc1cccc2c(C[C@@H]3NC(=O)CCCCCCCCC(=O)N(C)CCCC[C@@H](C(=O)NCC(=O)NCCc4cccnc4)NC(=O)C(C)(C)NC(=O)[C@H](Cc4ccc5ccccc5c4)NC(=O)[C@H](Cc4ccc(OCCN(C)C)cc4)NC(=O)C4(CCOCC4)NC(=O)[C@H](CC(C)C)NC3=O)c[nH]c12 [compound 17] ([Trp(7-Me)]L[Thp]Y(Me2NCH2CH2)[2Nal][Aib][Lys(Me)]G-{NH(2-(3-pyridyl)ethyl)}; linker N-7 via Sebacoyl) | ≥ 1410 µg/mL | < 10 µg/mL | < 10 µg/mL | 14.3 nM | 0% | 0% | 0% | 13% | 95% | 96% | 95%
